Measurements from publication PMC11484510, “Antibacterial activity of structurally diverse natural prenylated isobavachalcone derivatives” (RSC Advances, 2024).
≈ marks a conversion by molar mass, not a printed value. Entries after “also recorded” stand apart in the source; their conditions may differ. Read-outs that look alike come from different tables or passages of the source.

Legend:
MRSA ATCC 15187 = assay: MIC, broth microdilution (CLSI), Alamar blue; format: cell-based, Methicillin-resistant S. aureus; settings: read-out: Minimum inhibitory concentration (MIC) MRSA
From the text: (§1) The bacterial strains S. aureus ATCC 29213, MRSA ATCC 15187, E. coli ATCC 25922, and P. aeruginosa ATCC 27853 were obtained from ATCC (American Type Culture Collection). Cation-adjusted Mueller–Hinton broth (MHB; Becton–Dickinson, Cockeysville, MD) was used to determine the minimum inhibitory concentration (MIC). Mueller–Hinton agar (MHA; Becton–Dickinson) was used for minimum bactericidal concentration (MBC) studies. Alamar blue (Himedia) was used to detect the MIC value.
(§2) The antibacterial activity of the compounds against S. aureus ATCC 29213, MRSA ATCC 15187, E. coli ATCC 25922, and P. aeruginosa ATCC 27853 was determined through a broth microdilution method according to the guidelines of the Clinical and Laboratory Standards Institute (CLSI).[50] […] Growth control and media control were employed along with 2% DMSO as vehicle control.
(§3) In a 96-well flat bottom plate, the test compounds were two-fold serially diluted in Mueller Hinton Broth (MHB). The final concentrations of the compounds ranged from 100 to 0.08 μM. 100 μL of standardized bacterial inoculum with turbidity equivalent to 0.5 McFarland standard (1.5 × 10^8 CFU mL^−1) was diluted 1 : 100 (1.5 × 10^6 CFU mL^−1) in Mueller Hinton Broth and inoculated in the plates.[51] The plates were incubated for 24 hours at 37 °C. After incubation, 10 μL of freshly prepared Alamar blue (Himedia) was added to each well of the plate, and plates were further incubated at 37 °C for 30 minutes. After incubation, the fluorescence was measured at excitation/emission of 540–570/580–610 nm. The percentage inhibition and viability were calculated for the controls, and the Gompertz curve was utilized to estimate the minimum inhibitory concentration.

S. aureus [1] = assay: Combinational study (checkerboard microdilution) with standard drugs; format: cell-based; settings: for MIC: Staphylococcus aureus, read-out: MIC alone
Method: The Fractional Inhibitory Concentration Index (FICI) was calculated for each test compound and reference drug to find the combinational effect.
In a 96-well flat bottom plate, the reference drug with 4× MIC was serially diluted horizontally. The test compounds with 4× MIC were serially diluted two-fold outside the plate in 1.5 mL Eppendorf's using Mueller Hinton Broth (MHB). These two serially diluted compounds were combined to create drug-compound combinations in the plate. The reference drug (horizontally) and tested compounds (vertically) alone were serially diluted for MIC determination. 100 μL of the standardized bacterial inoculum with a turbidity equivalent to a 0.5 McFarland standard were diluted 1 : 100 in Mueller Hinton Broth and inoculated in the plates. The plates were incubated for 24 hours at 37 °C. After incubation, 10 μL of freshly prepared Alamar blue (Himedia) was added to each well of the plate, and the plates were further incubated at 37 °C for 30 minutes. After incubation, the plates were visually observed. […] The FICI was calculated using the formula FICI = FIC of compound + FIC of drug. The calculation followed is FICI (CA/(MICA)) + (CB/(MICB)), where CA is the MIC of the compound in combination, CB is the MIC of the drug in combination, and MICA and MICB are the MIC values of individual compounds and drugs, respectively. The range selection followed the interpretation criteria. The FICI range of 0.5 to 4 indicates indifference, ≤ or =0.5 indicates synergy and >4 indicates antagonism.[57]

S. aureus ATCC 29213 [2] = assay: MBC, plating on MHA; format: cell-based; settings: Staphylococcus aureus, ATCC29213; more than 99.9% of the cells killed; read-out: Minimum bactericidal concentration (MBC) S. aureus
From the text: as §1
(§4) MBC is defined as the lowest concentration of the compound at which more than 99.9% of the cells were killed compared with the growth control. The minimum compound concentration at which no visible bacterial growth was observed was taken as the Minimum Bactericidal Concentration (MBC).[50]

P. aeruginosa ATCC 27853 [3] = assay: MBC, plating on MHA; format: cell-based; settings: Pseudomonas aeruginosa, ATCC27853; more than 99.9% of the cells killed; read-out: Minimum bactericidal concentration (MBC) P. aeruginosa
From the text: as §1, §4

[4] = test system: RAW 264.7 macrophage cell line; assay: Cell viability assay (MTT); format: cell-based, murine; settings: CC50 (RAW 264.7)/MIC with respect to S. aureus
Method: (§5) RAW 264.7 cells were acquired from the American type culture collection (ATCC, Manassas, VA) and cultured in Dulbecco's modified eagle's medium (DMEM, Gibco, Life Technologies, NY) supplemented with 10% fetal bovine serum (FBS) at 37 °C and 5% CO2. MTT dye (Himedia) was used to detect CC50 values. The antibiotics ciprofloxacin hydrochloride monohydrate (Himedia), kanamycin sulfate (Himedia), and vancomycin (Himedia) were used for reference in microbiological assays.
(§6) The effect of compounds (IBC, IBC-2, and IBC-3) on the viability of cells was evaluated at different concentrations against macrophage cell lines through the 3-(4,5-dimethylthiazol2-yl)-2, 5-diphenyltetrazolium bromide (MTT) assay. The RAW 264.7 cells are monocyte/macrophage-like cells originating from an Abelson leukemia virus-transformed cell line derived from BALB/c mice. Due to their reliability and consistency, these cell lines are widely utilized for both in vitro and in vivo analyses.[52] The MTT assay is a colorimetric assay used to measure the viability and cytotoxicity of cells. The cells (2 × 10^4 cells per well) were grown at 37 °C with 5% CO2 for 48 hours, then exposed to compounds with different concentrations. […] After 20–21 hours, 20 μL of MTT dye at 2.5 mg mL^−1 concentration was added to each well and incubated for 4 hours. 100 μL DMSO solubilized the water-insoluble purple and white formazan produced.[53] The formation of the formazan salt by mitochondrial dehydrogenases was measured at 570.0 nm after incubating for 20 min. The percentage cytotoxicity was calculated with respect to the untreated cells, and the CC50 value was calculated. CC50 was defined as the concentration of an inhibitor that reduces cellular activities by 50% compared to untreated control cultures. The CC50 values were calculated as the concentration where the absorbance was reduced by 50% using GraphPad Prism software.[54] The selectivity index (SI) determines the safety profile of the compound. It is calculated as the ratio of compound concentration at which 50% of cell growth is inhibited compared to untreated cells (CC50) to the effective inhibiting concentration against bacterial strain (MIC). The high SI (>10 fold of MIC) of a drug is proven to have a favorable safety profile.[28] Selectivity index (SI) = CC50 of the compound (μM)/MIC of the compound (μM).

[5] = Cell viability assay (MTT); format: cell-based, murine; settings: mouse, RAW 264.7 macrophage cells; RAW 264.7 macrophage cell line, MTT assay
Method: as §5, §6

E. coli ATCC 25922 = assay: MIC, broth microdilution (CLSI), Alamar blue; format: cell-based; settings: E. coli ATCC 25922, 24 hours at 37 °C, read-out: Minimum inhibitory concentration (MIC) E. coli
From the text: as §1, §2, §3

S. aureus ATCC 29213 [6] = assay: MIC, broth microdilution (CLSI), Alamar blue; format: cell-based; settings: S. aureus ATCC 29213, 24 hours at 37 °C, read-out: Minimum inhibitory concentration (MIC) S. aureus
From the text: as §1, §2, §3

P. aeruginosa ATCC 27853 [7] = assay: MIC, broth microdilution (CLSI), Alamar blue; format: cell-based; settings: P. aeruginosa ATCC 27853, 24 hours at 37 °C, read-out: Minimum inhibitory concentration (MIC) P. aeruginosa
From the text: as §1, §2, §3

S. aureus ATCC 29213 [8] = assay: Time-kill assay; format: cell-based; settings: for Time-kill profile: MIC, 2× MIC, 4× MIC, 1 h to 24 h, 37 °C
S. aureus [9] = assay: Cell integrity analysis by PI staining; format: cell-based; settings: drug control at 1× MIC, 30 minutes
Method: Propidium iodide (PI) indicates cell integrity, emitting a red fluorescence signal. PI's polar and hydrophilic nature impedes its entrance within active bacterial cells, but within perforated dead cells, it can easily bind to nucleic acid (DNA/RNA).[32,60]S. aureus bacterial cells were incubated overnight at 37 °C and diluted further 1 : 100 in Mueller Hinton Broth (MHB). The diluted culture was grown until its OD600 reached 0.5. […] Vancomycin was used as a drug control at 1× MIC, while untreated bacterial cells were used as growth control. The samples were centrifuged at 5000 rpm speed at 4 °C temperature for 10 minutes, and the pellet was washed two times using phosphate-buffered saline pH-7.4 (PBS). To stain the sample (dead cells), 3 μL PI of 20.0 mM concentration was added to the 1 mL solution (pellet resuspended in PBS) and incubated for 15 minutes. To remove the dye, the samples were centrifuged again and washed with PBS once. The final pellet was resuspended in 1 mL of PBS, and 30 μL of each undiluted sample was used to obtain fluorescence imaging. The cells were observed under fluorescence microscopy.[61]

[10] = MRSA ATCC 15187, 24 hours at 37 °C
[11] = Staphylococcus aureus, MRSA ATCC 15187, 24 hours at 37 °C
[12] = MIC of the compound in combination with ciprofloxacin, S. aureus
[13] = MIC of the compound in combination with vancomycin, S. aureus
[14] = checkerboard, S. aureus, substance alone
[15] = compound with ciprofloxacin, S. aureus
[16] = compound with vancomycin, S. aureus
[17] = Staphylococcus aureus, ATCC29213
[18] = Pseudomonas aeruginosa, ATCC27853, 24 h

MIC (MRSA ATCC 15187; [10]) | MIC (MRSA ATCC 15187; [11]) | MIC combination (compound) (S. aureus [1]; [12]) | MIC combination (compound) (S. aureus [1]; [13]) | MIC (S. aureus [1]; [14]) | MIC (E. coli ATCC 25922) | MIC (E. coli ATCC 25922; Escherichia coli, ATCC25922) | MIC (S. aureus ATCC 29213 [6]) | MIC (S. aureus ATCC 29213 [6]; [17]) | MIC (P. aeruginosa ATCC 27853 [7]; [18]) | SMILES | Outcome of combination (S. aureus [1]; [15]) | ∑ FICI (S. aureus [1]; [15]) | Outcome of combination (S. aureus [1]; [16]) | ∑ FICI (S. aureus [1]; [16]) | MBC (S. aureus ATCC 29213 [2]) | MBC (P. aeruginosa ATCC 27853 [3]) | CC50 [5] | Time-kill profile (S. aureus ATCC 29213 [8]) | other results
>100 µM | > 100 µM | 5 µM | 2.5 µM | 5 µM | >100 µM | > 100 µM | 5 µM (≈ 1.62 µg/mL) | 5 µM (≈ 1.62 µg/mL) | 24 µM (≈ 7.79 µg/mL) | CC(C)=CCc1c(O)ccc(C(=O)/C=C/c2ccc(O)cc2)c1O [IBC, (E)-1-(2,4-dihydroxy-3-(3-methylbut-2-en-1-yl)phenyl)-3-(4-hydroxyphenyl) prop-2-en-1-one] | Indifference (The FICI range of 0.5 to 4 indicates indifference) | 1.25 | Indifference (The FICI range of 0.5 to 4 indicates indifference) | 0.99 | 6.25 µM (≈ 2.03 µg/mL) | 25 µM (≈ 8.11 µg/mL) | 94 µM | after 24 hours, an increase in CFU was observed; also recorded: concentration-dependent killing till 9 h | Selectivity index (SI) [4]: 19
>100 µM | > 100 µM | 0.625 µM | 5 µM | 5 µM | >100 µM | > 100 µM | 5 µM (≈ 1.62 µg/mL) | 5 µM (≈ 1.62 µg/mL) | 24 µM (≈ 7.79 µg/mL) | CC1(C)CCc2c(ccc3c2OC(c2ccc(O)cc2)CC3=O)O1 (stereo not drawn) [IBC-2, 2-(4-hydroxyphenyl)-8,8-dimethyl-2,3,9,10-tetrahydro-4H,8H-pyrano[2,3-f]chromen-4-one] | Indifference (The FICI range of 0.5 to 4 indicates indifference) | 0.625 | Indifference (The FICI range of 0.5 to 4 indicates indifference) | 2 | 12.5 µM (≈ 4.05 µg/mL) | 50 µM (≈ 16.2 µg/mL) | 115 µM | concentration-dependent killing effect; also recorded: concentration and time-dependent killing effects | MIC (P. aeruginosa ATCC 27853 [7]): 22 µM (≈ 7.14 µg/mL); CFU count of S. aureus ATCC 29213 in time-kill study (S. aureus ATCC 29213 [8]; 2× MIC and 4× MIC, with increasing time (up to 24 h)): below the detection limit
– | – | – | – | – | – | – | – | – | – | CN[C@H](CC(C)C)C(=O)N[C@H]1C(=O)N[C@@H](CC(N)=O)C(=O)N[C@H]2C(=O)N[C@H]3C(=O)N[C@H](C(=O)N[C@H](C(=O)O)c4cc(O)cc(O)c4-c4cc3ccc4O)[C@H](O)c3ccc(c(Cl)c3)Oc3cc2cc(c3O[C@@H]2O[C@H](CO)[C@@H](O)[C@H](O)[C@H]2O[C@H]2C[C@](C)(N)[C@H](O)[C@H](C)O2)Oc2ccc(cc2Cl)[C@H]1O [Vancomycin, vancomycin, reference compound] | – | – | – | – | – | – | – | – | MIC (MRSA ATCC 15187; Staphylococcus aureus, 24 h): 0.7 µM (≈ 1.01 µg/mL); PI red fluorescence (cell integrity) (S. aureus [9]): higher number of dead cells emitting red fluorescence; MIC combination (drug) (S. aureus [1]; MIC of vancomycin in combination with IBC, S. aureus): 0.39 µM; MIC combination (drug) (S. aureus [1]; MIC of vancomycin in combination with IBC-2, S. aureus): 0.78 µM; MIC combination (drug) (S. aureus [1]; MIC of vancomycin in combination with IBC-3, S. aureus): 0.02 µM; MIC (S. aureus [1]): 0.78 µM
